Laboratory results taken from ChEMBL document CHEMBL1250486, “Synthesis and evaluation of fatty acyl ester derivatives of cytarabine as anti-leukemia agents” (2010).
Active and inactive are the calls of the source. The calls are words filed in the database; no cut-off is given here.

Assays:
CCRF-CEM [1] = assay: Antiproliferative activity against human CCRF-CEM cells at 1 uM after 24 hrs; assay type: functional, cell-based
CCRF-CEM [2] = assay: Antiproliferative activity against human CCRF-CEM cells at 1 uM after 96 hrs; assay type: functional

Question: Which results are given for `CCSCCCCCCCCCCCC(=O)O[C@H]1[C@H](O)[C@@H](CO)O[C@H]1n1ccc(N)nc1=O`?
Answer: Activity (CCRF-CEM [1]): Active; Activity (CCRF-CEM [2]): 36%

Question: How did the Activity (CCRF-CEM [2]) turn out when `CCCCCCCCCCCCCC(=O)OC[C@H]1O[C@@H](n2ccc(N)nc2=O)[C@@H](O)[C@@H]1O` was run?
Answer: inactive

Question: `CCCCCCCCCCCCCC(=O)O[C@H]1[C@H](O)[C@@H](CO)O[C@H]1n1ccc(N)nc1=O` was tested. Which Activity (CCRF-CEM [1]) did it give?
Answer: Active

Question: And the Activity (CCRF-CEM [2])?
Answer: 36%

Question: Which results are given for `CCCCCCCCCCCCCC(=O)OC[C@H]1O[C@@H](n2ccc(N)nc2=O)[C@@H](OC(=O)CCCCCCCCCCCCC)[C@@H]1O`?
Answer: Activity (CCRF-CEM [1]): Active; Activity (CCRF-CEM [2]): 76%

Question: How did the Activity (CCRF-CEM [2]) turn out when `CCSCCCCCCCCCCCC(=O)OC[C@H]1O[C@@H](n2ccc(N)nc2=O)[C@@H](O)[C@@H]1O` was run?
Answer: inactive
